According to US20140093573A1, “NON-ENTERIC COATED PHARMACEUTICAL COMPOSITION AND USE THEREOF” (NATIONAL TAIWAN UNIVERSITY, priority 2012, published 2014):

System: Caco-2 cells
Assay: Cellular uptake study (flow cytometry, confocal microscopy)
Assay type: cell-based, Human
Settings: Caco-2 monolayer, 0.5 h incubation, 200 ng/mL coumarin-6 equivalent
Method: Caco-2 cell monolayers approximately 21-24 days post seeding were used for the cellular uptake study. Before the experiments, the monolayers were washed with HBSS (pH 7.4) twice and then preincubated with HBSS at 37° C. for 30 min. The HBSS (control), free coumarin-6 solution (200 ng/mL), ERSNPs-C6 or PLGANPs-C6 suspension in HBSS equivalent to 200 ng/mL of coumarin-6 were added in the donor compartment while 3 mL of HBSS was added in the receiver compartment. These Caco-2 cell monolayers were incubated for 0.5 h and 1 h at 37° C. in an atmosphere of 5% CO2 and 90% relative humidity. The flow cytometry and confocal microscopy were used to assess the intracellular fluorescence. After 0.5 h and 1 h of incubation, the cell monolayers were washed with phosphate buffered saline (PBS, pH 7.4) three times following by trypsinization for 5 min (100 μL, 0.25% trypsin EDTA). Trypsinization was stopped by adding 1 mL of cold PBS. Cells were detached from the inserts by pipetting and centrifuged at 1000 rpm for 5 min The cells were resuspended in 2 mL PBS and analyzed by using fluorescent activated flow cytometry (BD FACS Calibur) and BD CellQuest software (BD Biosciences, NJ, USA). This experiment was performed in triplicate.
For confocal microscopic study, after 0.5 hours of incubation at 37° C., cell monolayer was washed with PBS three times. […]

Compound: CCN(CC)c1ccc2cc(-c3nc4ccccc4s3)c(=O)oc2c1 [coumarin-6, Coumarin-6]
- cellular uptake efficiency (fluorescence intensity of cells): 1.27±0.3%
